This data set can be described thus: Serum kinetic profile and daily EntF* exposure after i.p. injection. It is filed as in vivo, female Swiss nu/nu mice. As to the method:
Fifty microliters of serum were mixed with 150 μL 0.5% formic acid in acetonitrile. After sonication for 5 min, samples were vortexed for 5 s, then heated for 30 s at 100 °C. The solution was vortexed and centrifuged for 20 min at 20,000g at 4 °C. The supernatant was purified using solid phase extraction (SPE) on HyperSep C18 plates (Thermo Fisher Scientific, Belgium), previously conditioned with acetonitrile and equilibrated with 75% acetonitrile in water, containing 0.375% formic acid. After loading 150 μL of each sample, 120 μL eluent were collected and organic solvents evaporated using nitrogen (1 L/min) for 5 min. The resulting samples were further diluted with 30 μL of BSA-based anti-adsorption solution, and analyzed by LC-MS.
EntF* was detected and quantified on a Waters Acquity® UPLC H-class system, connected to a Waters Xevo™ TQ-S triple quadrupole mass spectrometer with electrospray ionization (operated in positive ionization mode). Autosampler tray and column oven were kept at 10 ± 5 °C and 60 ± 5 °C, respectively. Chromatographic separation was achieved on a Waters Acquity® UPLC BEH Peptide C18 column (300 Å, 1.7 μm, 2.1 mm × 100 mm). The mobile phases consisted of 93/2/5 water/acetonitrile/DMSO (V/V/V) containing 0.1% formic acid (mobile phase A) and 2/93/5 water/acetonitrile/DMSO (V/V/V) containing 0.1% formic acid (mobile phase B), and the flow rate was set to 0.5 mL/min. A 10-μL aliquot from each sample was injected. The gradient program started with 80% of mobile phase A for 1 min, followed by a linear gradient to 40% of mobile phase A for 3.5 min. Gradient was then changed to 14.2% mobile phase A at 5 min, followed by a 1 min equilibration, before starting conditions were applied. EntF* retention time was between 4.25 and 4.45 min.
To calculate daily peptide exposure, female Swiss nu/nu mice (n = 14) were i.p. injected with 25 μL of 100 μM EntF*, their serum withdrawn at different time points and analyzed by LC1-MS1. A distribution and early exponential phase (α, 0-30 min), followed by a terminal elimination phase (β, 30–180 min) could be distinguished. The exposure was determined over a period of 24 h (x) as follows: ExposurenMxmin=∫030Ae^-αt+∫30xBe^-βt .

As for `CC(C)C[C@@H]1NC(=O)[C@H](CO)NC(=O)[C@H](Cc2ccccc2)NC(=O)[C@H](C(C)C)NC(=O)[C@@H](NC(=O)[C@H](CCC(=O)O)NC(=O)[C@@H](NC(=O)[C@H](CC(C)C)NC(=O)[C@H](CC(N)=O)NC(=O)[C@@H](N)CO)C(C)C)CSSC[C@@H](C(=O)N[C@@H](CC(N)=O)C(=O)O)NC(=O)[C@H](CCCCN)NC(=O)[C@H](CCCCN)NC(=O)[C@H](Cc2ccccc2)NC1=O` (single isomer, unassigned) [EntF*], the “Daily exposure during CRC experiment, Exposure (nM*min), Distribution phase” value (after 100 nmol kg-1 EntF* i.p. injection) was found to be 74.91 nM·min. Also, the “Distribution phase, serum level, Average” value reads like this: (after 100 nmol kg-1 EntF* i.p. injection, 5 min, mean of n = 4) 4.2292; (after 100 nmol kg-1 EntF* i.p. injection, 10 min, mean of n = 4) 2.596; (after 100 nmol kg-1 EntF* i.p. injection, 15 min, mean of n = 4) 2.427. Further, the “Elimination phase, serum level, Average” value reads like this: (after 100 nmol kg-1 EntF* i.p. injection, 60 min, mean of n = 4) 0.2851; (after 100 nmol kg-1 EntF* i.p. injection, 120 min, mean of n = 4) 0.389. For the same molecule, the level at time molar at 0.5 h (female, Swiss nu/nu, mouse, serum, ip, after 100 nmol kg-1 EntF* i.p. injection, 30 min, mean of n = 4, read-out: Distribution phase / Elimination phase, serum level, Average) worked out at 0.854 nM. The level at time molar at 3 h (female, Swiss nu/nu, mouse, serum, ip, after 100 nmol kg-1 EntF* i.p. injection, 180 min, mean of n = 4, read-out: Elimination phase, serum level, Average) is 0.195 nM. For the same molecule, the “EntF* serum concentration” value was determined as 4.2292 nM (serum, 5 min after i.p. injection, Xgem (mean of 4 values)); 2.5962 nM (serum, 10 min after i.p. injection, Xgem (mean of 4 values)); 2.4271 nM (serum, 15 min after i.p. injection, Xgem (mean of 4 values)); 0.8544 nM (serum, 30 min after i.p. injection, Xgem (mean of 4 values)); 0.2851 nM (serum, 60 min after i.p. injection, Xgem (mean of 4 values)); 0.3890 nM (serum, 120 min after i.p. injection, Xgem (mean of 4 values)). The “EntF* serum concentration” value stood at 0.4699 nM (serum, 180 min after i.p. injection, replicate X1,2) and 0.5336 nM (serum, 180 min after i.p. injection, replicate X2,2).

The values are drawn from article PMC9238271, “The quorum sensing peptide EntF* promotes colorectal cancer metastasis in mice: a new factor in the host-microbiome interaction” (BMC Biology, 2022).
